# How the values were obtained:
# MCF-7 = experiment: SRB-based cytotoxicity assay; assay type: cell-based, human; conditions: Homo sapiens, MCF7; MCF-7; SRB; Table 2
# Description: (§1) For (anti)proliferation assays, 4,000-5,000 cells/well of the 96-well clustered dish were incubated for 16 hours, as described previously (Hu et al., 2008; Skehan et al., 1990). After 16 hours, culture medium was replaced with fresh medium containing different dilutions of test compounds dissolved in DMSO. Some wells were treated with 100 μl of 10% trichloroacetic acid (TCA) as a negative control and sham (medium with dimethyl sulfoxide; DMSO) treated cells were used as a positive control. After 72 hours post-incubation, medium was removed and cells were fixed with 10% TCA at 4° C. for 1 hour. TCA was removed and cells were washed with cold tap water, and plate was air-dried, followed by addition of 50 μl of 0.4% SRB staining solution to each well. After 30 minutes incubation, SRB staining solution was removed. Cells were washed with 1% acetic acid solution, and then washed with tap water to remove unbound staining solution, followed by air-drying. 200 μl of 10 mM (pH10.5) trizma base buffer was added to each well to solubilise macromolecules. SRB stained macromolecules were determined at a 540 nm wavelength using an automated plate reader (Synergy H4 Hybrid Multi-Mode Microplate Reader, BioTek, Winooski, Vt.). Cell growth (inhibition) was calculated by the following formula:
# (§2) % cells proliferation=[(AT−CT)/(ST−CT)]×100
# (§3) wherein AT=absorbance of treated cells, CT=absorbance of negative control cells, and ST=absorbance of sham treated cells. IC50 values were calculated from sigmoidal dose-response curves generated by two independent biological replicates, with quadruplicate in each set by using Graph Pad Prism v.5.04 software. […] The combinational index (CI) was calculated as described previously (Chou 2006). If the CI values were less than, equal to or more than 1, it indicates a synergistic, additive or antagonistic effect respectively (Chou 2006). CI values were determined from four independent experiments.
# MDA-MB-468 = experiment: SRB-based cytotoxicity assay; assay type: cell-based, human; conditions: for IC50: Homo sapiens, MDA-MB-468, SRB, Table 2
# Description: as §1, §2, §3
# A549 (lung) = experiment: SRB-based cytotoxicity assay; assay type: cell-based; conditions: Homo sapiens, 72 hours
# Procedure, shortened: (§4)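 Cells seeded 16 h, then exposed 72 h to compound dilutions; TCA-fixed, SRB-stained, absorbance at 540 nm. Proliferation normalised to TCA-treated (negative) and DMSO sham (positive) controls; IC50 from sigmoidal curves, two biological replicates in quadruplicate.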
# HEK293T (kidney) = experiment: SRB-based cytotoxicity assay; assay type: cell-based; conditions: Homo sapiens, HEK-293T, 72 hours
# Procedure, shortened: as §4
# K562 = experiment: SRB-based cytotoxicity assay; assay type: cell-based; conditions: Homo sapiens, Table 2
# Procedure, shortened: as §4
# NCI-H1975 (lung) = experiment: SRB-based cytotoxicity assay; assay type: cell-based; conditions: Homo sapiens, 72 hours
# Procedure, shortened: as §4
# T98G (brain) = experiment: SRB-based cytotoxicity assay; assay type: cell-based; conditions: Homo sapiens, 72 hours
# Procedure, shortened: as §4
# U87MG (brain) = experiment: SRB-based cytotoxicity assay; assay type: cell-based; conditions: Homo sapiens, U-87 MG, 72 hours
# Procedure, shortened: as §4
# UC3 (Bladder) = experiment: SRB-based cytotoxicity assay; assay type: cell-based; conditions: 72 hours
# Procedure, shortened: as §4
# KB-C-1 = experiment: SRB-based cytotoxicity assay; assay type: cell-based; conditions: Homo sapiens, KBC-1; KB-C-1, multidrug naïve
# Description: 1845B5 and MCF-10A non-cancer breast cell lines were cultured in DME/F12 medium supplemented with 10% fetal bovine serum, antibiotics and growth factors. […] The human small cell lung carcinoma H69 cell line and its multidrug-resistant MRP1-overexpressing isogenic H69AR cell line were purchased from ATCC. […] H69 cells grow as large multi-cell aggregates, making it difficult to accurately count cell numbers. […] The IL-6 dependent bortezomib-resistant ANBL6-BR cell line was further supplemented with 1 ng/ml of IL-6. The MCF10AT1 and MCF10CA1a cell lines are isogenic to the MCF10A cell line, and obtained from Dr. Valerie Weaver at the Center for Bioengineering and Tissue Regeneration, UCSF, CA, USA. […] The drug-resistant cells were cultured in the absence of drug for at least one passage before carrying out experiments. All cells were maintained in a humidified incubator at 37° C. […] Cell line authentication was performed using short tandem repeat (STR) profiling. […] Some wells were treated with 100 μl of 10% trichloroacetic acid (TCA) as a negative control and sham (medium with dimethyl sulfoxide; DMSO) treated cells were used as a positive control. […] TCA was removed and cells were washed with cold tap water, and plate was air-dried, followed by addition of 50 μl of 0.4% SRB staining solution to each well. After 30 minutes incubation, SRB staining solution was removed. Cells were washed with 1% acetic acid solution, and then washed with tap water to remove unbound staining solution, followed by air-drying. 200 μl of 10 mM (pH10.5) trizma base buffer was added to each well to solubilise macromolecules. […] Cell growth (inhibition) was calculated by the following formula: % cells proliferation=[(AT-CT)/(ST-CT)]×100 wherein AT=absorbance of treated cells, CT=absorbance of negative control cells, and ST=absorbance of sham treated cells. […] CI values were determined from four independent experiments.
# tubulin = target: T1, tubulin (Sus scrofa, UniProt P02550+P02554); experiment: Dissociation constant of CTR-tubulin binding (tryptophan fluorescence); set-up: species or system porcine; conditions: purified tubulin 0.4 μM, 30 minutes at 37° C.
# T1 construct: purchased Cytoskeleton Inc. (Denver, Colo.) T240
# Description: Purified tubulin (0.4 μM) was dissolved in 25 mM PIPES buffer (pH 6.8) and incubated in the presence or absence of different concentrations of CTR-17 (or CTR-20) for 30 minutes at 37° C. The intrinsic fluorescence of the tryptophan residues in the tubulin heterodimers was monitored by excitation of the reaction mixture at 295 nm and the emission spectra at the 315-370 nm wavelength range. All measurements were corrected for the inner filter using the formula Fcorrected=Fobserved×antilog [(Aex+Aem)/2], where Aex and Aem are the absorbance of the reaction mixture at the excitation and emission wavelengths, respectively. Graph Pad Prism software was used to determine the dissociation constant of the CTR compounds binding to tubulin using the following formula
# wherein ΔF is the changes in fluorescence intensity of tubulin when bound with the CTR compounds, ΔFmax is the maximum change in the fluorescence intensity when tubulin is bound with the compounds, C is the concentration of the CTR compounds, and Kd is the dissociation constant of the CTR compounds bound to tubulin.
# [1] = test system: tubulin (vinblastine binding site); experiment: BODIPY FL vinblastine competition assay; set-up: species or system porcine; conditions: 25 μM; 5 μM BODIPY FL-vinblastine
# Text: For the vinblastine competition assay, fluorescence was monitored by excitation of the reaction mixture at 490 nm and the emission spectra at the 510-550 nm range.
# [2] = SRB-based cytotoxicity assay; assay type: cell-based; conditions: human, MCF-10A cells (non-cancer breast cells); MCF10A; 31.25 nM; 72 hours; read-out: cell viability
# Procedure, shortened: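 A540 of SRB-stained, TCA-fixed cells after 72 h compound exposure gave % proliferation relative to TCA-treated wells (0%) and DMSO sham (100%). IC50 values came from sigmoidal dose-response fits over two independent biological replicates, each run in quadruplicate.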
# T1 sequence (P02554 whole entry): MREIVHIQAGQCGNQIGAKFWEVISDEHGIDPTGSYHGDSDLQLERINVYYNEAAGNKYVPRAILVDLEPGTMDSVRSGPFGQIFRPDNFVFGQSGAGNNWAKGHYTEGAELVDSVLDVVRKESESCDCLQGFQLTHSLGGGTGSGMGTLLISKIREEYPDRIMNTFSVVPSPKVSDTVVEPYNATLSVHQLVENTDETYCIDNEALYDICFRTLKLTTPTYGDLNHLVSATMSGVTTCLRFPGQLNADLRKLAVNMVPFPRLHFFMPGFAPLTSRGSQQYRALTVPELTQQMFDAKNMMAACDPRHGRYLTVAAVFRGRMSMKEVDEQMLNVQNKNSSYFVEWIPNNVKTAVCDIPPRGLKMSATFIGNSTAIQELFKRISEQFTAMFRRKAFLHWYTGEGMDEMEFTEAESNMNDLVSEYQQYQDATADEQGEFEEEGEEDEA
# T1 sequence (P02550 whole entry): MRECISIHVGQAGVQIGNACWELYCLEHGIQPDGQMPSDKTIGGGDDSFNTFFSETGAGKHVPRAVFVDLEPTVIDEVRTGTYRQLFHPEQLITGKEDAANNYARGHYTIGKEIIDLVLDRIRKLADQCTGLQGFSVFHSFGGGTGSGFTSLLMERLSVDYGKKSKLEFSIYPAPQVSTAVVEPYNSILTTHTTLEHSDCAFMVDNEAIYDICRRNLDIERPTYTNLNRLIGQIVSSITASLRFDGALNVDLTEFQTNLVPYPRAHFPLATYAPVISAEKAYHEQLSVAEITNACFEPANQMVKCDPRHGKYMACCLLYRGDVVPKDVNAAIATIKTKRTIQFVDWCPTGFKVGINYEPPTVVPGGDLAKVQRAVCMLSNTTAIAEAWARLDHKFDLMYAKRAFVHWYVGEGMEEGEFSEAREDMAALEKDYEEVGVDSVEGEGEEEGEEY
smiles,measurement,setting,value
"COc1ccccc1C(=O)/C=C/c1cc2ccccc2[nH]c1=O [CTR-17, (E)-3-(3-(2-Methoxyphenyl)-3-oxoprop-1-enyl)quinolin-2(1H)-one]",IC50,MCF-7,520 ± 170 nM
same,IC50,MDA-MB-468,150 ± 330 nM
same,preferentially kill cancer over non-cancer cells,MDA-MB-468; MDA-MB-468 versus MCF-10A,up to 26 times
same,IC50,A549 (lung),410 ± 60 nM
same,IC50,HEK293T (kidney),420 ± 70 nM
same,IC50,K562,150 ± 100 nM
same,IC50,NCI-H1975 (lung),600 ± 140 nM
same,IC50,T98G (brain),820 ± 90 nM
same,IC50,U87MG (brain),760 nM
same,IC50,UC3 (Bladder),390 ± 30 nM
same,IC50,KB-C-1,380 ± 70 nM
same,Kd,tubulin,4580 ± 950 nM
same,binding to the vinblastine binding site on the tubulin,[1],did not bind to the vinblastine binding site
"COc1ccc2[nH]c(=O)c(/C=C/C(=O)c3ccccc3OC)cc2c1 [CTR-20, (E)-6-Methoxy-3-(3-(2-methoxyphenyl)-3-oxoprop-1-enyl) quinolin-2(1H)-one]",IC50,MCF-7,140 ± 60 nM
same,IC50,MDA-MB-468,120 ± 20 nM
same,IC50,A549 (lung),130 ± 40 nM
same,IC50,HEK293T (kidney),190 nM
same,IC50,K562,130 ± 20 nM
same,IC50,NCI-H1975 (lung),390 ± 140 nM
same,IC50,T98G (brain),220 ± 100 nM
same,IC50,U87MG (brain),490 ± 130 nM
same,IC50,UC3 (Bladder),120 ± 30 nM
same,IC50,KB-C-1,100 ± 20 nM
same,Kd,tubulin,5090 ± 490 nM
same,binding to the vinblastine binding site on the tubulin,[1],did not bind to the vinblastine binding site
"COc1ccccc1C(=O)/C=C/c1cc2cccc(OC)c2[nH]c1=O [CTR-21, (E)-8-methoxy-3-(3-(2-methoxyphenyl)-3-oxoprop-1-enyl) quinolin-2(1H)-one]","viability at 72 h, 0.03125 µM",[2],26%
"CCOc1ccccc1C(=O)/C=C/c1cc2ccccc2[nH]c1=O [CTR-32, (E)-3-(3-(2-ethoxyphenyl)-3-oxoprop-1-enyl)quinolin-2(1H)-one]","viability at 72 h, 0.03125 µM",[2],87%
